# Measurements published in ChEMBL document CHEMBL5303765, “Data for DCP probe BAY-7081” (2023).
# Experiments:
# [1] = target: cGMP-dependent 3',5'-cyclic phosphodiesterase (Homo sapiens, UniProt O00408); assay: 3H-cAMP and 3H-cGMP Scintillation Proximity Assay (PDE2A)
# [2] = target: 3',5'-cyclic-AMP phosphodiesterase 4B (Homo sapiens, UniProt Q07343); assay: 3H-cAMP and 3H-cGMP Scintillation Proximity Assay (PDE4B)
# [3] = target: Sodium/potassium-transporting ATPase (Sus scrofa) (UniProt P05027+P05024+D2WKD8+D2WKD7+F1ST41); assay: ATPase, Na+/K+, Heart, Pig Eurofins Panlabs panel; format: protein-complex assay; conditions: Compound concentration 10.0 uM
# [4] = target: Monoamine oxidase B (MAO-B) (Homo sapiens, UniProt P27338); assay: Monoamine Oxidase MAO-B Eurofins Panlabs panel; conditions: compound concentration 10 uM
# [5] = target: Phosphodiesterase 4 (Homo sapiens) (UniProt P27815+Q08499+Q07343+Q08493); assay: Phosphodiesterase PDE4 Eurofins Panlabs panel; format: protein assay; conditions: Compound concentration 10.0 uM
# [6] = target: Adenosine receptor A2a (Homo sapiens) (UniProt P29274); assay: Adenosine A2A Eurofins Panlabs panel; conditions: Compound concentration 10.0 uM
# [7] = target: Adenosine receptor A3 (Homo sapiens) (UniProt P0DMS8); assay: Adenosine A3 Eurofins Panlabs panel; conditions: Compound concentration 10.0 uM
# [8] = target: Alpha-1A adrenergic receptor (Rattus norvegicus) (UniProt P43140); assay: Adrenergic alpha1A Eurofins Panlabs panel; conditions: Compound concentration 10.0 uM
# [9] = target: T1, Alpha-2C adrenergic receptor (Homo sapiens) (UniProt P18825); assay: Adrenergic alpha2C Eurofins Panlabs panel; conditions: Compound concentration 10.0 uM
# T1 sequence (whole entry): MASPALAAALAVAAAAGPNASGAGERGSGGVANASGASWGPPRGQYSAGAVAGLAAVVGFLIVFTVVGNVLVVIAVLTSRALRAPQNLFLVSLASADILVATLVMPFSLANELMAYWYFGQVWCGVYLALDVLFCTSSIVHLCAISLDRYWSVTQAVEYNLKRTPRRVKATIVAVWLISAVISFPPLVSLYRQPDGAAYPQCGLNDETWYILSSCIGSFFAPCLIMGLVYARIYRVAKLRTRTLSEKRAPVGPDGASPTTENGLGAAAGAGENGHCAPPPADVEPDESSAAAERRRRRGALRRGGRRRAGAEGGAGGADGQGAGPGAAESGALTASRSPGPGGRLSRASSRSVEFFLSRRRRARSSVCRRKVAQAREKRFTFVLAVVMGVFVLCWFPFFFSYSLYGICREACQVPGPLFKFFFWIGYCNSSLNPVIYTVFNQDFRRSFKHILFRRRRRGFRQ
# [10] = target: Beta-1 adrenergic receptor (Homo sapiens) (UniProt P08588); assay: Adrenergic beta1 Eurofins Panlabs panel; conditions: Compound concentration 10.0 uM
# [11] = target: Beta-2 adrenergic receptor (Homo sapiens) (UniProt P07550); assay: Adrenergic beta2 Eurofins Panlabs panel; conditions: Compound concentration 10.0 uM
# [12] = target: Androgen receptor (Homo sapiens) (UniProt P10275); assay: Androgen (Testosterone) Eurofins Panlabs panel; conditions: Compound concentration 10.0 uM
# [13] = target: Type-1 angiotensin II receptor (Homo sapiens) (UniProt P30556); assay: Angiotensin AT1 Eurofins Panlabs panel; conditions: Compound concentration 10.0 uM
# [14] = target: Type-2 angiotensin II receptor (Homo sapiens) (UniProt P50052); assay: Angiotensin AT2 Eurofins Panlabs panel; conditions: Compound concentration 10.0 uM
# [15] = target: B2 bradykinin receptor (Homo sapiens) (UniProt P30411); assay: Bradykinin B2 Eurofins Panlabs panel; conditions: Compound concentration 10.0 uM
# [16] = target: D(2) dopamine receptor (Homo sapiens) (UniProt P14416); assay: Dopamine D2S Eurofins Panlabs panel; conditions: Compound concentration 10.0 uM
# [17] = target: GABA-A receptor; anion channel (Rattus norvegicus) (UniProt O09028+P15431+P18506+P18508+P19969+P20236+P23574+P23576+P28471+P28473+P30191+P62813+P63079+P63138+Q91ZM7+Q9ES14); assay: GABAA, Muscimol, Central Eurofins Panlabs panel; format: protein-complex assay; conditions: Compound concentration 10.0 uM
# [18] = target: Glutamate NMDA receptor (Rattus norvegicus) (UniProt P35439+Q00959+Q00960+Q00961+Q62645+Q8VHN2+Q9R1M7); assay: Glutamate, NMDA, Glycine Eurofins Panlabs panel; format: protein-complex assay; conditions: Compound concentration 10.0 uM
# [19] = target: Histamine H1 receptor (Homo sapiens) (UniProt P35367); assay: Histamine H1 Eurofins Panlabs panel; conditions: Compound concentration 10.0 uM
# [20] = target: Muscarinic acetylcholine receptor M3 (Homo sapiens) (UniProt P20309); assay: Muscarinic M3 Eurofins Panlabs panel; conditions: Compound concentration 10.0 uM
# [21] = target: Delta-type opioid receptor (Homo sapiens) (UniProt P41143); assay: Opiate delta1 (OP1, DOP) Eurofins Panlabs panel; conditions: Compound concentration 10.0 uM
# [22] = target: Progesterone receptor (Homo sapiens) (UniProt P06401); assay: Progesterone PR-B Eurofins Panlabs panel; conditions: Compound concentration 10.0 uM
# [23] = target: 5-hydroxytryptamine receptor 2A (Homo sapiens) (UniProt P28223); assay: Serotonin (5-Hydroxytryptamine) 5-HT2A Eurofins Panlabs panel; conditions: Compound concentration 10.0 uM
# [24] = target: Sodium-dependent dopamine transporter (Homo sapiens) (UniProt Q01959); assay: Transporter, Dopamine (DAT) Eurofins Panlabs panel; conditions: Compound concentration 10.0 uM
# [25] = target: Sodium-dependent serotonin transporter (Homo sapiens) (UniProt P31645); assay: Transporter, Serotonin (5-Hydroxytryptamine) (SERT) Eurofins Panlabs panel; conditions: Compound concentration 10.0 uM
# [26] = target: Vasopressin V1a receptor (Homo sapiens) (UniProt P37288); assay: Vasopressin V1A Eurofins Panlabs panel; conditions: concentration not given here
# [27] = target: L-type calcium channel, benzothiazepine site (Rattus norvegicus, UniProt P22002+P27732+Q02485); assay: Calcium Channel L-Type, Benzothiazepine Eurofins Panlabs panel; format: protein assay; conditions: compound concentration 10 uM
# [28] = target: Neuropeptide Y receptor type 1 (Homo sapiens) (UniProt P25929); assay: Neuropeptide Y Y1 Eurofins Panlabs panel; conditions: Compound concentration 10.0 uM
# [29] = target: Prostaglandin E2 receptor EP1 subtype (Homo sapiens) (UniProt P34995); assay: Prostanoid EP1 Eurofins Panlabs panel; conditions: Compound concentration 10.0 uM
# [30] = target: Prostaglandin E2 receptor EP3 subtype (Homo sapiens) (UniProt P43115); assay: Prostanoid EP3 Eurofins Panlabs panel; conditions: concentration not given here
# [31] = target: cGMP-inhibited 3',5'-cyclic phosphodiesterase 3B (Homo sapiens, UniProt Q13370); assay: Panlabs assay PDE3B; parameters: compound concentration 10 uM; conditions: at 10 µM
# [32] = target: Phosphodiesterase 6 (Bos taurus) (UniProt P23439+P16586+P11541+P22571+P04972+Q95142); assay: Panlabs assay PDE6; format: tissue-based; parameters: compound concentration 10 uM; conditions: retina, at 10 µM
# [33] = target: 3',5'-cyclic-AMP phosphodiesterase 7B (Homo sapiens, UniProt Q9NP56); assay: Panlabs assay PDE7B; parameters: compound concentration 10 uM; conditions: at 10 µM
# [34] = target: High affinity cAMP-specific and IBMX-insensitive 3',5'-cyclic phosphodiesterase 8A (Homo sapiens, UniProt O60658); assay: Panlabs assay PDE8A1; parameters: compound concentration 10 uM; conditions: at 10 µM
# [35] = target: High affinity cGMP-specific 3',5'-cyclic phosphodiesterase 9A (Homo sapiens, UniProt O76083); assay: Panlabs assay PDE9A2; parameters: compound concentration 10 uM
# High affinity cGMP-specific 3',5'-cyclic phosphodiesterase 9A, sequence (O76083 whole entry): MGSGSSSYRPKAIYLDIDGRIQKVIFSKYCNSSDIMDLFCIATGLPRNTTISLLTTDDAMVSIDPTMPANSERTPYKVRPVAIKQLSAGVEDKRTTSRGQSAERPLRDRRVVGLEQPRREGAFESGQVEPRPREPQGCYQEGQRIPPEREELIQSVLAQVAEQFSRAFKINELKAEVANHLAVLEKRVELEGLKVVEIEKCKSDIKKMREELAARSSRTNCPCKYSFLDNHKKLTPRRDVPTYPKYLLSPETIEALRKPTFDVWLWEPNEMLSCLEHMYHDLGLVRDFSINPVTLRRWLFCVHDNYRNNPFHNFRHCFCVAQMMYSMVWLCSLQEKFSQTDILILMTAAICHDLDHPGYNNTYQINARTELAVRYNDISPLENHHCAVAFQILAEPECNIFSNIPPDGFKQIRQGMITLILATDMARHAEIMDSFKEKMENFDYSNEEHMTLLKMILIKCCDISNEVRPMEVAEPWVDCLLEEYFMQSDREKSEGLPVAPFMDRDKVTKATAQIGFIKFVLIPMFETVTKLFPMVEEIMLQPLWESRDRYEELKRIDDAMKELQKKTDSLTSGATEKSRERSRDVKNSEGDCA
# Adenosine receptor A3 (Homo sapiens), sequence (P0DMS8 whole entry): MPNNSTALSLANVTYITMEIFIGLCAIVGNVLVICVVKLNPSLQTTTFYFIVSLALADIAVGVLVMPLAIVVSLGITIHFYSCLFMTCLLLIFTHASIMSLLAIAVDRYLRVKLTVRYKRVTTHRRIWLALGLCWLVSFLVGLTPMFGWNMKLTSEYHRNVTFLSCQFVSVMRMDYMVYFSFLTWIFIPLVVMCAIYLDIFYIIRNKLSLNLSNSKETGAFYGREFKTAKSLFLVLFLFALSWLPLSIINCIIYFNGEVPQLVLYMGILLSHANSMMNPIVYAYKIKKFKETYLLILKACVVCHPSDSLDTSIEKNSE
# D(2) dopamine receptor (Homo sapiens), sequence (P14416 whole entry): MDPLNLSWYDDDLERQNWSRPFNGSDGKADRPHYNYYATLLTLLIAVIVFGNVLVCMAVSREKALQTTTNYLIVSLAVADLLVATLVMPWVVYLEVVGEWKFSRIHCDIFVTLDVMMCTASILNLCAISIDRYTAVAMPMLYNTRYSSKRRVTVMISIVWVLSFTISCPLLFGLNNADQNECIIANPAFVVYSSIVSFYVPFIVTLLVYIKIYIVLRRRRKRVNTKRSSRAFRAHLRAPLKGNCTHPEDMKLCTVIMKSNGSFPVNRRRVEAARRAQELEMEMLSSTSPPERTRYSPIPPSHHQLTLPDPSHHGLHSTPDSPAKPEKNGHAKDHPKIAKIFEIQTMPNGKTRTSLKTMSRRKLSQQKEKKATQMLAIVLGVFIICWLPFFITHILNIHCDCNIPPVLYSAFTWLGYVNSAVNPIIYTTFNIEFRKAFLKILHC
# Vasopressin V1a receptor (Homo sapiens), sequence (P37288 whole entry, looked up): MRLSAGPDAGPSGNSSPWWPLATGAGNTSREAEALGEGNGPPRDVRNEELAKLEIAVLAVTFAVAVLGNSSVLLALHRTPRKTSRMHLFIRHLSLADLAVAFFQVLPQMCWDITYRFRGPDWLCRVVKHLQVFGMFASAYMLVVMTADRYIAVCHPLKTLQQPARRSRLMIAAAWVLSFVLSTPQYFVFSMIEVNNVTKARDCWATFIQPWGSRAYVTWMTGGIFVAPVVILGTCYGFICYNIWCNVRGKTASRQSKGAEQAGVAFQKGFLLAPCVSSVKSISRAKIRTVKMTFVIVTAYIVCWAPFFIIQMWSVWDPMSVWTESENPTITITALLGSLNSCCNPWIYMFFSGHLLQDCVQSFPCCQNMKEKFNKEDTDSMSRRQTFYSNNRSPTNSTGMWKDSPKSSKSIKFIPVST
# 3',5'-cyclic-AMP phosphodiesterase 7B, sequence (Q9NP56 whole entry): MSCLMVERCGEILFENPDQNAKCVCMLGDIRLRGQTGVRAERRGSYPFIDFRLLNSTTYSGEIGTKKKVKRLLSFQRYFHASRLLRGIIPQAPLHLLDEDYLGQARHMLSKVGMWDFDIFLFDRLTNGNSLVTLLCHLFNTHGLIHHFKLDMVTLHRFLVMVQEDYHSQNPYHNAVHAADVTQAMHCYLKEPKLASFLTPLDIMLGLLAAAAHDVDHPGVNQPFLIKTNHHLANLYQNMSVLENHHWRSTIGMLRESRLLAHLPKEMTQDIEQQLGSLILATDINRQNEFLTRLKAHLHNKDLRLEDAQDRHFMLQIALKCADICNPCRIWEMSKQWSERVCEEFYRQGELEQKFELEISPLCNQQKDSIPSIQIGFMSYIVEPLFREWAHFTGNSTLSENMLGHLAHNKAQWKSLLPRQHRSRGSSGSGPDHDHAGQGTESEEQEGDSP
# Beta-2 adrenergic receptor (Homo sapiens), sequence (P07550 whole entry, looked up): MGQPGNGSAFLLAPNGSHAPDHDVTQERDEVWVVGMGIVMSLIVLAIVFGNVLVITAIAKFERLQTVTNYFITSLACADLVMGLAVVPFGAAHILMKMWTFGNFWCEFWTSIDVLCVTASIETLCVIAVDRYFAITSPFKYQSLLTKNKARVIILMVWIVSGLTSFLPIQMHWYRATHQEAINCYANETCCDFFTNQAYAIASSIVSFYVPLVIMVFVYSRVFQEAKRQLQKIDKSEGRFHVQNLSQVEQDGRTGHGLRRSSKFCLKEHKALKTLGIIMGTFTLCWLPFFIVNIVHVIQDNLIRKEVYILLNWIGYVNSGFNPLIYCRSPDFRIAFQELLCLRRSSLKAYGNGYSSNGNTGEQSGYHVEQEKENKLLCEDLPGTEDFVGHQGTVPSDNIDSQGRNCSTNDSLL
# 5-hydroxytryptamine receptor 2A (Homo sapiens), sequence (P28223 whole entry): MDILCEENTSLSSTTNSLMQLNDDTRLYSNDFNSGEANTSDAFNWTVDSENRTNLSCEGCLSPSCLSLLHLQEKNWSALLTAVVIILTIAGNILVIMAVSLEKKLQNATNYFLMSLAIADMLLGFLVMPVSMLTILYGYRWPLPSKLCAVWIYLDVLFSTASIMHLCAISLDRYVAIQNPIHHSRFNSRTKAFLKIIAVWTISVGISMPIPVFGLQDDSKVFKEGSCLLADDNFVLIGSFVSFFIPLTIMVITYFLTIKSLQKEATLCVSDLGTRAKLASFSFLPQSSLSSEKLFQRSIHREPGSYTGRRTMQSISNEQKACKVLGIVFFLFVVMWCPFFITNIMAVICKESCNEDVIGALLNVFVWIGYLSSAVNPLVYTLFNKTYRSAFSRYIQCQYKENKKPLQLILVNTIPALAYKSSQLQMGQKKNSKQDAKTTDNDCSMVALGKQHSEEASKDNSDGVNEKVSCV
# Muscarinic acetylcholine receptor M3 (Homo sapiens), sequence (P20309 whole entry, looked up): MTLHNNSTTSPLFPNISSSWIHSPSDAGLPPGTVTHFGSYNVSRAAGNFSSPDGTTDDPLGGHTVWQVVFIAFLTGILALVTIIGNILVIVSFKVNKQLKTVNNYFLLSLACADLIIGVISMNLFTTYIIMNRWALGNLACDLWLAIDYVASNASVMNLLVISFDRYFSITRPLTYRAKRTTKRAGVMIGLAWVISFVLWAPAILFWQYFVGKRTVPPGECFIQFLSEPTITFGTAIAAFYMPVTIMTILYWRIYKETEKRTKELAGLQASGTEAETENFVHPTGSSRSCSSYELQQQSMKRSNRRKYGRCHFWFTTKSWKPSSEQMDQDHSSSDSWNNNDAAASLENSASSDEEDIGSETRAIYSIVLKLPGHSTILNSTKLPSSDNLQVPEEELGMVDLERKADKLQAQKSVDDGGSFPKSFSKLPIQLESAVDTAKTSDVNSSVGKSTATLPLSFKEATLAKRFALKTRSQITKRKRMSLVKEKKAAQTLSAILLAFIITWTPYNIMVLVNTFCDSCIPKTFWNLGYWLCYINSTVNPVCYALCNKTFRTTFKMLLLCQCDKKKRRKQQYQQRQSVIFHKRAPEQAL
# Alpha-1A adrenergic receptor (Rattus norvegicus), sequence (P43140 whole entry): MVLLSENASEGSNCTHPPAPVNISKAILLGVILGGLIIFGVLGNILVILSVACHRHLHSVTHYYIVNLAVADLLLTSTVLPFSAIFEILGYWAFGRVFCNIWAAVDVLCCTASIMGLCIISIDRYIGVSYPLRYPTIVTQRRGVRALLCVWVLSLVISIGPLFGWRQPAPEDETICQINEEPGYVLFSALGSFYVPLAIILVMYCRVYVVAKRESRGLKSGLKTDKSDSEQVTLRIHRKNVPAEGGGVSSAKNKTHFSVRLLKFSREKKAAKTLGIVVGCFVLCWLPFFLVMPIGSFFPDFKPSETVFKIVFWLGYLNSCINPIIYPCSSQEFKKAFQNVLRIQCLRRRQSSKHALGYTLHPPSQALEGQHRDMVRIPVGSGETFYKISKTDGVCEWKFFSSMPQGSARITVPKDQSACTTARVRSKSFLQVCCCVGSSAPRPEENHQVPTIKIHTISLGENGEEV
# Prostaglandin E2 receptor EP1 subtype (Homo sapiens), sequence (P34995 whole entry): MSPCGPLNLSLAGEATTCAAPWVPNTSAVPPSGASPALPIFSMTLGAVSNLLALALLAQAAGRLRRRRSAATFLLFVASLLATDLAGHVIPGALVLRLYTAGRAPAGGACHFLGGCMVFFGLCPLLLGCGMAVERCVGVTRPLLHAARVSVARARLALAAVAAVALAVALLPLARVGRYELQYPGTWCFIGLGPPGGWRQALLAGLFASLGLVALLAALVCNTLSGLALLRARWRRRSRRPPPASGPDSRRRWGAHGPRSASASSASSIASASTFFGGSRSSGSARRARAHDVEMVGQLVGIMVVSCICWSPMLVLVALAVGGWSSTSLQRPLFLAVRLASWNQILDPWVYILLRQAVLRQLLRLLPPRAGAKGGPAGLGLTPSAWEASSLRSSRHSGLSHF
# Delta-type opioid receptor (Homo sapiens), sequence (P41143 whole entry): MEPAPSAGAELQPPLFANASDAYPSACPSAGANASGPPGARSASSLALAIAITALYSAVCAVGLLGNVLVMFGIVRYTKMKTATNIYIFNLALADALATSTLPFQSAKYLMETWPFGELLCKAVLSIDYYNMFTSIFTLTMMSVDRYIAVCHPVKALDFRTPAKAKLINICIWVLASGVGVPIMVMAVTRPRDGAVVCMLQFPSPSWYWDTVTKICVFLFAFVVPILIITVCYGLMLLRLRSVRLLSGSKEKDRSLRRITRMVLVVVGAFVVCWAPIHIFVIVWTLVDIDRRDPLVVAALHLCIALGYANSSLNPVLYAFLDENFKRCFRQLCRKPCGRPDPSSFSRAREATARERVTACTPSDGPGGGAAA
compound,measurement,setting,value
CCC[C@H]1CNCc2c1[nH]c(=O)c(C#N)c2N1CCC2(CC1)CC2,IC50,[1],> 10 µM (not active)
same,IC50,[2],3.96 µM (not active)
same,inhibition,[3],-1%
same,inhibition at 10 µM,[4],2%
same,inhibition,[5],58%
same,inhibition,[6],2%
same,inhibition,[7],12.5%
same,inhibition,[8],2%
same,inhibition,[9],-1%
same,inhibition,[10],5.2%
same,inhibition,[11],-6%
same,inhibition,[12],-6%
same,inhibition,[13],5%
same,inhibition,[14],3%
same,inhibition,[15],-4%
same,inhibition,[16],-2%
same,inhibition,[17],25%
same,inhibition,[18],-2%
same,inhibition,[19],5%
same,inhibition,[20],-9%
same,inhibition,[21],5%
same,inhibition,[22],2%
same,inhibition,[23],2%
same,inhibition,[24],19%
same,inhibition,[25],3.5%
same,inhibition,[26],0%
same,inhibition at 10 µM,[27],18.5%
same,inhibition,[28],15%
same,inhibition,[29],8%
same,inhibition,[30],0%
CCC[C@@H]1CNCc2c1[nH]c(=O)c(C#N)c2N1CCC2(CC1)CC2,inhibition,[31],0.8%
same,inhibition,[32],16.7%
same,inhibition,[33],-2.1%
same,inhibition,[34],2.9%
same,IC50,[35],7.47 µM (not active)
